According to patent US20260028365A1 (BIOGEN MA INC., priority 2022, published 2026):
Read-outs that look alike come from different tables or passages of the source.

How the values were obtained:
JH2 domain of human Tyk2 = JH2 domain of human Tyk2 (Homo sapiens (Human), UniProt P29597); assay: JH2 Biochemical Assay (TR-FRET probe displacement); type: binding
JAK1 = JAK1 (Homo sapiens (Human), UniProt P23458); assay: pSTAT3 Cell Assay (MSD, TF1 cells); type: cell-based
Experimental: The inhibitory potency of compounds of the disclosure against the JAK1 kinase activity on STAT3 was evaluated using an MSD-platform plate-based assay format. TF1 cells natively expressing STAT3 and JAK1 were serum-starved to reduce background phosphorylation levels, then cells were treated with compounds of the disclosure for 1 hour with a 10-point four-fold dilution series starting at 10 μM. Cells were then stimulated with 30 ng/mL interleukin 6 (IL-6) for 15 minutes. Cells were lysed and pSTAT3 levels were quantitated using an MSD plate-based assay with anti-STAT3 antibodies. The data were normalized and the percent activity versus log concentration of compound was fitted with a 4-parameter logistic model to generate IC50 curves.

JAK2 = JAK2 (Homo sapiens (Human), UniProt O60674); assay: pSTAT5 Cell Assay (MSD, TF1 cells); type: cell-based; conditions: MSD
Sequence of JAK2 (O60674 whole entry): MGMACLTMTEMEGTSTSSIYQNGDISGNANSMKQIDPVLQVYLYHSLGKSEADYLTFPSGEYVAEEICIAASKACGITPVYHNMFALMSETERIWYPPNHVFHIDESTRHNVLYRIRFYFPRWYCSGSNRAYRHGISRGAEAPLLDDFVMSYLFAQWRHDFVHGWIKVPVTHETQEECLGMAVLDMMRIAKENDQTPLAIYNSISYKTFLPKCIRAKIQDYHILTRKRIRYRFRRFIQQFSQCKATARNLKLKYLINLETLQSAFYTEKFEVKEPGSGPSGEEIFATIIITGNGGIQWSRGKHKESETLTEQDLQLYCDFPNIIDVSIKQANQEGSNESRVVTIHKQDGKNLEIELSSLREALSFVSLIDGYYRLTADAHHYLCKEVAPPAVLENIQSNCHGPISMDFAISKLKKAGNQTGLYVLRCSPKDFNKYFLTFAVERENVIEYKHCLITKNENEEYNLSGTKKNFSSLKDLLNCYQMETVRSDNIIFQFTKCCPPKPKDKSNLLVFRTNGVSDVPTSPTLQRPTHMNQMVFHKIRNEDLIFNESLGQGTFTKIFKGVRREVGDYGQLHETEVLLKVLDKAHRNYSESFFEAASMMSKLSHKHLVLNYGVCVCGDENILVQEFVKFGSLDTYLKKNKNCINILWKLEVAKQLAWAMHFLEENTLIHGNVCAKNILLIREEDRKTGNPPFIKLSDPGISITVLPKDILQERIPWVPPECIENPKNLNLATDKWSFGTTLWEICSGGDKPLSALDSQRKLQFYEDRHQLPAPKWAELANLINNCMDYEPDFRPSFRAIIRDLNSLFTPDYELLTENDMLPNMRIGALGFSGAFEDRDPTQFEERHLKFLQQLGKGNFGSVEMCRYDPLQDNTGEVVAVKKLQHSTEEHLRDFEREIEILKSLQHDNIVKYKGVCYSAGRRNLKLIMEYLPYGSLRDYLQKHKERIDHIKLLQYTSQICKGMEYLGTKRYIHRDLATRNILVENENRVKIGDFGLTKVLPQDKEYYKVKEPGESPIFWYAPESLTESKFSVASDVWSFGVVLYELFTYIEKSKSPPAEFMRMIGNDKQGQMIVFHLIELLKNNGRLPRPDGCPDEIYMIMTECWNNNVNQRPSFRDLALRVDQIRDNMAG
Experimental: Compounds of the disclosure were assessed for their ability to inhibit the JAK2 kinase activity on STAT5 utilizing an MSD-platform plate-based assay format. TF1 cells natively expressing STAT5 and JAK2 were serum-starved to reduce background phosphorylation levels, then cells were treated with compounds of disclosure for 1 hour with a 10-point four-fold dilution series starting at 10 μM. Cells were then stimulated with 30 ng/mL IL-3 for 15 minutes. Cells were then lysed and pSTAT5 levels were quantitated using an MSD plate-based assay with anti-STAT5 antibodies. The data were normalized and the percent activity versus log concentration of compound was fitted with a 4-parameter logistic model to generate a curve and an IC50 value.

Tyk2 = Tyk2 (Homo sapiens (Human), UniProt P29597); assay: pSTAT4 Cell Assay (MSD, NK92 cells); type: cell-based
Sequence of Tyk2 (P29597 whole entry, the tested form may be a part): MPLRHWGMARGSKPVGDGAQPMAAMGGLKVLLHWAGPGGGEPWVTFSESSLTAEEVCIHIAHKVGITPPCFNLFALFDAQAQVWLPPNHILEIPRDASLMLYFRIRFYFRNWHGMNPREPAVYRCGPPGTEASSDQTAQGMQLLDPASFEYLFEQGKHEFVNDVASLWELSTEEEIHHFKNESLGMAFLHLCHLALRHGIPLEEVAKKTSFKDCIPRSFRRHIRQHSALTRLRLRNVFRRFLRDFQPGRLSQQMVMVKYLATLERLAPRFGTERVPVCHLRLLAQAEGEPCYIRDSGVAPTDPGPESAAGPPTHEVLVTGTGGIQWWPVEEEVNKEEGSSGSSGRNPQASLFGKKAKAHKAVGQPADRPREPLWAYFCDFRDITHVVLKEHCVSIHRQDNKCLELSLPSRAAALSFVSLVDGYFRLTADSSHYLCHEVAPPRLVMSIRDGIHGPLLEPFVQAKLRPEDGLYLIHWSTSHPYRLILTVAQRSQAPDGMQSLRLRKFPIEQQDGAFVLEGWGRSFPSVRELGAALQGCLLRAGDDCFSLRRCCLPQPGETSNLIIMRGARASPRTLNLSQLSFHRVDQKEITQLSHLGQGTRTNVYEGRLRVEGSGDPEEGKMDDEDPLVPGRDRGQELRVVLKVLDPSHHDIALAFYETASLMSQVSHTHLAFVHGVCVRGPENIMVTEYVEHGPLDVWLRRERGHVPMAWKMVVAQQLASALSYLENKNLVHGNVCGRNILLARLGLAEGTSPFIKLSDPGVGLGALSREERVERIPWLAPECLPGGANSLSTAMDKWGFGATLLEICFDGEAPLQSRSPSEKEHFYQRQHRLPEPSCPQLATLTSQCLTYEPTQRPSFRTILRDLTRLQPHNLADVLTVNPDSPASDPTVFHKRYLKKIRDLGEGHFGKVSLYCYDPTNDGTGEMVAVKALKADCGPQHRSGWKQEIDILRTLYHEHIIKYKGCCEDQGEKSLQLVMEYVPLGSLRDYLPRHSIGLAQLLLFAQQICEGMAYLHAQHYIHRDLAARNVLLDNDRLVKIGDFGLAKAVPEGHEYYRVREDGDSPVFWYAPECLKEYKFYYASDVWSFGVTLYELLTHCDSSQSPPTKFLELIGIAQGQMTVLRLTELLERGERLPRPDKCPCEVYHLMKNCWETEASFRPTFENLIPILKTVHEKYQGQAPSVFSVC

[1] = TR-FRET probe displacement, JH2 domain of human Tyk2
[2] = TR-FRET probe displacement, JH2 domain
[3] = JH2 domain of human Tyk2, TR-FRET probe displacement

Sequence of JAK1 (P23458 whole entry): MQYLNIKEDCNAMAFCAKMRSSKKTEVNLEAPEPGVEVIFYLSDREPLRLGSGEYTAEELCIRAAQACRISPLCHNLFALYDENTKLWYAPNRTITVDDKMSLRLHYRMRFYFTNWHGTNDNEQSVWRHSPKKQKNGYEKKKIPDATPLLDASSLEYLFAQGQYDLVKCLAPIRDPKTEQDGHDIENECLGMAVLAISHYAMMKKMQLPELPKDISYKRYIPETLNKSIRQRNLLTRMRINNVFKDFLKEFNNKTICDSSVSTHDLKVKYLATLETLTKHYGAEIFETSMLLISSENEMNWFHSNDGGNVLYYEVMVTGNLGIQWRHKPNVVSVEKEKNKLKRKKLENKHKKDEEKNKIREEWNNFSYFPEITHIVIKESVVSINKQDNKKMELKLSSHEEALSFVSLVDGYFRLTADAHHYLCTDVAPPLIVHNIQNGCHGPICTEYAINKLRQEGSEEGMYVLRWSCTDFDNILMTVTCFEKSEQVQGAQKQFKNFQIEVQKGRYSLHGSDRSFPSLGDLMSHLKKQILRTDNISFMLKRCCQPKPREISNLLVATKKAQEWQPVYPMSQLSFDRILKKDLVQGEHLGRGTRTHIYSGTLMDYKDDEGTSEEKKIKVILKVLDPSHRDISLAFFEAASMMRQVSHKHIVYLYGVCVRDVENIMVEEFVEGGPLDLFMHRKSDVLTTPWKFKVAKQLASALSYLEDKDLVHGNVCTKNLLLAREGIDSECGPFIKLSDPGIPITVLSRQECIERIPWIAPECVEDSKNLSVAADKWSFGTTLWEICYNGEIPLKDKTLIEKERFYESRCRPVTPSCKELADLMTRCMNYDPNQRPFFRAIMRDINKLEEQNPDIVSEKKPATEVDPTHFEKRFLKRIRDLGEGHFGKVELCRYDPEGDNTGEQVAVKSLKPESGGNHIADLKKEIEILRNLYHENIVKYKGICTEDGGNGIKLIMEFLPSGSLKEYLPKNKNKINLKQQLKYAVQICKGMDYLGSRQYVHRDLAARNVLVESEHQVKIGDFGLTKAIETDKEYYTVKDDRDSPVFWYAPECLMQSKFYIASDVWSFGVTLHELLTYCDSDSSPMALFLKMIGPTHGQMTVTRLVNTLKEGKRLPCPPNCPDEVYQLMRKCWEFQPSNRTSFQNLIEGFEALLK
Sequence of JH2 domain of human Tyk2 (P29597 575-876): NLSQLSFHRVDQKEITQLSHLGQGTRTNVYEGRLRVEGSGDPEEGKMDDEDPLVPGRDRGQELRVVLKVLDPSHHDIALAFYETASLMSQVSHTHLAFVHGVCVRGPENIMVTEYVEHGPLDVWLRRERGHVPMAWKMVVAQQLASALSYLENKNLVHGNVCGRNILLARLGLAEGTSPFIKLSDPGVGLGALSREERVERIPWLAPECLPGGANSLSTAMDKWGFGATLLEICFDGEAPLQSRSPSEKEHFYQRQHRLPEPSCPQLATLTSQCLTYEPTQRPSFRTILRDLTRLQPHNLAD

| SMILES | IC50 (JAK1; IL-6 stimulation, MSD) [nM] | IC50 (Tyk2; MSD) [nM] | IC50 (JH2 domain of human Tyk2; [2]) [nM] | IC50 (JAK1; IL-6 stimulated) [nM] | IC50 (Tyk2) [nM] | further results |
| --- | --- | --- | --- | --- | --- | --- |
| CCOc1cnc(NC(C)=O)cc1Nc1nccc(C(C)(F)F)n1 [Example 3, N-(4-((4-(1,1-difluoroethyl)pyrimidin-2-yl)amino)-5-ethoxypyridin-2-yl)acetamide] | ≥ 1000 | 10 to 100 | – | – | – | IC50 (JH2 domain of human Tyk2; [1]): ≤ 10 nM; IC50 (JAK2; IL-3 stimulation): ≥ 1000 nM |
| CCc1cc(Nc2cc(NC(C)=O)ncc2OCCCOC)nc(C(C)(F)F)n1 [Example 69, N-(4-((2-(1,1-difluoroethyl)-6-ethylpyrimidin-4-yl)amino)-5-(3-methoxypropoxy)pyridin-2-yl)acetamide] | ≥ 1000 | 10 to 100 | – | – | – | IC50 (JH2 domain of human Tyk2; [1]): ≤ 10 nM; IC50 (JAK2; IL-3 stimulation): ≥ 1000 nM |
| CC(=O)Nc1cc(Nc2ccnc(C(C)(F)F)n2)c(-c2ncc(F)cn2)cn1 [Example 185, N-(4-((2-(1,1-difluoroethyl)pyrimidin-4-yl)amino)-5-(5-fluoropyrimidin-2-yl)pyridin-2-yl)acetamide] | ≥ 1000 | 10 to 100 | – | – | – | IC50 (JH2 domain of human Tyk2; [1]): ≤ 10 nM; IC50 (JAK2; IL-3 stimulation): ≥ 1000 nM |
| CCc1cc(Nc2cc(NC(C)=O)ncc2-c2ccc(NC)cn2)nc(C(C)(F)F)n1 [Example 859, N-(4′-((2-(1,1-difluoroethyl)-6-ethylpyrimidin-4-yl)amino)-5-(methylamino)-[2,3′-bipyridin]-6′-yl)acetamide] | – | – | ≤ 10 | ≥ 1000 | ≤ 10 | – |
| CC(=O)Nc1cc(Nc2ccnc(C(C)(F)F)n2)c(-c2ccnc(C(F)F)n2)cn1 [Example 775, N-(4-((2-(1,1-difluoroethyl)pyrimidin-4-yl)amino)-5-(2-(difluoromethyl)pyrimidin-4-yl)pyridin-2-yl)acetamide] | – | – | ≤ 10 | ≥ 1000 | ≤ 10 | – |
| CC(=O)Nc1cc(Nc2cc(C)nc(C(C)(F)F)n2)c(-c2nncs2)cn1 [Example 744, N-(4-((2-(1,1-difluoroethyl)-6-methylpyrimidin-4-yl)amino)-5-(1,3,4-thiadiazol-2-yl)pyridin-2-yl)acetamide] | – | ≤ 10 | – | – | – | IC50 (JH2 domain of human Tyk2; [3]): ≤ 10 nM; IC50 (JAK1; IL-6 stimulated, MSD): ≥ 1000 nM |
| COCn1ncc(-c2cnc(NC(C)=O)cc2Nc2cc(C)nc(C(C)(F)F)n2)n1 [Example 608, N-(4-((2-(1,1-difluoroethyl)-6-methylpyrimidin-4-yl)amino)-5-(2-(methoxymethyl)-2H-1,2,3-triazol-4-yl)pyridin-2-yl)acetamide] | – | ≤ 10 | – | – | – | IC50 (JH2 domain of human Tyk2; [3]): ≤ 10 nM; IC50 (JAK1; IL-6 stimulated, MSD): ≥ 1000 nM |
| CCc1cc(Nc2cc(NC(C)=O)ncc2-c2cnc(N3CCOCC3)cn2)nc(C(C)(F)F)n1 [Example 861, N-(4-((2-(1,1-difluoroethyl)-6-ethylpyrimidin-4-yl)amino)-5-(5-morpholinopyrazin-2-yl)pyridin-2-yl)acetamide] | – | – | ≤ 10 | ≥ 1000 | 10 to 100 | – |
| CCc1cc(Nc2cc(NC(C)=O)ncc2-c2cnn(C)n2)nc(C(C)(F)F)n1 [Example 918, N-(4-((2-(1,1-difluoroethyl)-6-ethylpyrimidin-4-yl)amino)-5-(2-methyl-2H-1,2,3-triazol-4-yl)pyridin-2-yl)acetamide] | – | – | ≤ 10 | ≥ 1000 | ≤ 10 | – |
| COCCn1ncc(-c2cnc(NC(C)=O)cc2Nc2ccnc(C(C)(F)F)n2)n1 [Example 710, N-(4-((2-(1,1-difluoroethyl)pyrimidin-4-yl)amino)-5-(2-(2-methoxyethyl)-2H-1,2,3-triazol-4-yl)pyridin-2-yl)acetamide] | – | ≤ 10 | – | – | – | IC50 (JH2 domain of human Tyk2; [3]): ≤ 10 nM; IC50 (JAK2; IL-3 stimulated): ≥ 1000 nM |
| Cc1cc(Nc2cc(NC(N)=O)ncc2-c2ccc(C#N)cn2)nc(C(C)(F)F)n1 [Example 292, 1-(5-cyano-4′-((2-(1,1-difluoroethyl)-6-methylpyrimidin-4-yl)amino)-[2,3′-bipyridin]-6′-yl)urea] | ≥ 1000 | ≤ 10 | – | – | – | IC50 (JAK2; IL-3 stimulation): ≥ 1000 nM |
| COCCOc1nccc(-c2cnc(NC(C)=O)cc2Nc2cc(C)nc(C(C)(F)F)n2)n1 [Example 776, N-(4-((2-(1,1-difluoroethyl)-6-methylpyrimidin-4-yl)amino)-5-(2-(2-methoxyethoxy)pyrimidin-4-yl)pyridin-2-yl)acetamide] | – | – | ≤ 10 | ≥ 1000 | ≤ 10 | – |
| CC(=O)Nc1cc(Nc2ccnc(C(C)(F)F)n2)c(-c2ccc(CN3CCOC[C@@H]3C)cn2)cn1 [Example 892, (S)-N-(4′-((2-(1,1-difluoroethyl)pyrimidin-4-yl)amino)-5-((3-methylmorpholino)methyl)-[2,3′-bipyridin]-6′-yl)acetamide] | – | – | ≤ 10 | ≥ 1000 | ≤ 10 | – |
| CC(=O)Nc1cc(Nc2ccnc(C(C)(F)F)n2)c(-c2nc3c(s2)CN(C)CC3)cn1 [Example 798, N-(4-((2-(1,1-difluoroethyl)pyrimidin-4-yl)amino)-5-(5-methyl-4,5,6,7-tetrahydrothiazolo[5,4-c]pyridin-2-yl)pyridin-2-yl)acetamide] | – | – | ≤ 10 | ≥ 1000 | ≤ 10 | – |
| CC(=O)Nc1cc(Nc2cc(C)nc(C34COC(C3)C4)n2)c(-c2cc(C)ncn2)cn1 [Example 746, N-(4-((2-(2-oxabicyclo[2.1.1]hexan-4-yl)-6-methylpyrimidin-4-yl)amino)-5-(6-methylpyrimidin-4-yl)pyridin-2-yl)acetamide] | – | – | ≤ 10 | ≥ 1000 | 100 to 1000 | – |
| CC(=O)Nc1cc(Nc2cc(C)nc(C(C)(F)F)n2)c(OCC(C)(C)F)cn1 [Example 119, N-(4-((2-(1,1-difluoroethyl)-6-methylpyrimidin-4-yl)amino)-5-(2-fluoro-2-methylpropoxy)pyridin-2-yl)acetamide] | ≥ 1000 | 10 to 100 | – | – | – | IC50 (JAK2; IL-3 stimulation): ≥ 1000 nM |
| CC(=O)Nc1cc(Nc2cc(C)nc(C(C)(F)F)n2)c(-c2cccc([C@H]3CN(C)CCO3)n2)cn1 (single isomer, unassigned) [Example 642, (R)-N-(4′-((2-(1,1-difluoroethyl)-6-methylpyrimidin-4-yl)amino)-6-(4-methylmorpholin-2-yl)-[2,3′-bipyridin]-6′-yl)acetamide or (S)-N-(4′-((2-(1,1-difluoroethyl)-6-methylpyrimidin-4-yl)amino)-6-(4-methylmorpholin-2-yl)-[2,3′-bipyridin]-6′-yl)acetamide] | – | ≤ 10 | – | – | – | IC50 (JH2 domain of human Tyk2; [3]): ≤ 10 nM; IC50 (JAK1; IL-6 stimulated, MSD): ≥ 1000 nM |
| CC(=O)Nc1cc(Nc2cc(C)nc(C34COC(C3)C4)n2)c(-c2ccc(C#N)cn2)cn1 [Example 751, N-(4′-((2-(2-oxabicyclo[2.1.1]hexan-4-yl)-6-methylpyrimidin-4-yl)amino)-5-cyanO[2,3′-bipyridin]-6′-yl)acetamide] | – | – | ≤ 10 | ≥ 1000 | 10 to 100 | – |
| CCc1cc(Nc2cc(NC(C)=O)ncc2-c2ccc(OC(F)F)cn2)nc(C(C)(F)F)n1 [Example 849, N-(4′-((2-(1,1-difluoroethyl)-6-ethylpyrimidin-4-yl)amino)-5-(difluoromethoxy)-[2,3′-bipyridin]-6′-yl)acetamide] | – | – | ≤ 10 | ≥ 1000 | ≤ 10 | – |
| CC(=O)Nc1cc(Nc2cc(C)nc(C(C)(C)F)n2)c(-c2ccncn2)cn1 [Example 800, N-(4-((2-(2-fluoropropan-2-yl)-6-methylpyrimidin-4-yl)amino)-5-(pyrimidin-4-yl)pyridin-2-yl)acetamide] | – | – | ≤ 10 | ≥ 1000 | ≤ 10 | – |
| COCc1ccc(-c2cnc(NC(C)=O)cc2Nc2cc(C)nc(C34CC(CO3)C4)n2)nc1 [Example 280, N-(4′-((2-(2-oxabicyclo[2.1.1]hexan-1-yl)-6-methylpyrimidin-4-yl)amino)-5-(methoxymethyl)-[2,3′-bipyridin]-6′-yl)acetamide] | ≥ 1000 | ≤ 10 | – | – | – | IC50 (JH2 domain of human Tyk2; [1]): ≤ 10 nM |
| COCCc1cnc(-c2cnc(NC(C)=O)cc2Nc2cc(C)nc(C(C)(F)F)n2)s1 [Example 756, N-(4-((2-(1,1-difluoroethyl)-6-methylpyrimidin-4-yl)amino)-5-(5-(2-methoxyethyl)thiazol-2-yl)pyridin-2-yl)acetamide] | – | – | ≤ 10 | ≥ 1000 | 100 to 1000 | – |
| CCc1cc(Nc2cc(NC(C)=O)ncc2-c2ccc(CN(C)C)cn2)nc(C(C)(F)F)n1 [Example 266, N-(4′-((2-(1,1-difluoroethyl)-6-ethylpyrimidin-4-yl)amino)-5-((dimethylamino)methyl)-[2,3′-bipyridin]-6′-yl)acetamide] | 100 to 1000 | ≤ 10 | – | – | – | IC50 (JH2 domain of human Tyk2; [1]): ≤ 10 nM |
| CC(=O)Nc1cc(Nc2cc(C)nc(C(C)(F)F)n2)c(OCC2COCCO2)cn1 (stereo not drawn) [Example 135, N-(5-((1,4-dioxan-2-yl)methoxy)-4-((2-(1,1-difluoroethyl)-6-methylpyrimidin-4-yl)amino)pyridin-2-yl)acetamide] | ≥ 1000 | ≤ 10 | – | – | – | IC50 (JAK2; IL-3 stimulation): ≥ 1000 nM |
| Cc1cc(Nc2cc(NC(N)=O)ncc2-c2ccc(F)cn2)nc(C(C)(F)F)n1 [Example 291, 1-(4′-((2-(1,1-difluoroethyl)-6-methylpyrimidin-4-yl)amino)-5-fluoro-[2,3′-bipyridin]-6′-yl)urea] | 100 to 1000 | ≤ 10 | – | – | – | IC50 (JAK2; IL-3 stimulation): ≥ 1000 nM |
